The target in this assay is T1, KCC2-S940A (Homo sapiens, UniProt Q9H2X9, S963A).
T1 construct: expressed in transfected cells; host or cells: HEK-293
T1 sequence (Q9H2X9 1-1116 isoform Q9H2X9-2 S940A): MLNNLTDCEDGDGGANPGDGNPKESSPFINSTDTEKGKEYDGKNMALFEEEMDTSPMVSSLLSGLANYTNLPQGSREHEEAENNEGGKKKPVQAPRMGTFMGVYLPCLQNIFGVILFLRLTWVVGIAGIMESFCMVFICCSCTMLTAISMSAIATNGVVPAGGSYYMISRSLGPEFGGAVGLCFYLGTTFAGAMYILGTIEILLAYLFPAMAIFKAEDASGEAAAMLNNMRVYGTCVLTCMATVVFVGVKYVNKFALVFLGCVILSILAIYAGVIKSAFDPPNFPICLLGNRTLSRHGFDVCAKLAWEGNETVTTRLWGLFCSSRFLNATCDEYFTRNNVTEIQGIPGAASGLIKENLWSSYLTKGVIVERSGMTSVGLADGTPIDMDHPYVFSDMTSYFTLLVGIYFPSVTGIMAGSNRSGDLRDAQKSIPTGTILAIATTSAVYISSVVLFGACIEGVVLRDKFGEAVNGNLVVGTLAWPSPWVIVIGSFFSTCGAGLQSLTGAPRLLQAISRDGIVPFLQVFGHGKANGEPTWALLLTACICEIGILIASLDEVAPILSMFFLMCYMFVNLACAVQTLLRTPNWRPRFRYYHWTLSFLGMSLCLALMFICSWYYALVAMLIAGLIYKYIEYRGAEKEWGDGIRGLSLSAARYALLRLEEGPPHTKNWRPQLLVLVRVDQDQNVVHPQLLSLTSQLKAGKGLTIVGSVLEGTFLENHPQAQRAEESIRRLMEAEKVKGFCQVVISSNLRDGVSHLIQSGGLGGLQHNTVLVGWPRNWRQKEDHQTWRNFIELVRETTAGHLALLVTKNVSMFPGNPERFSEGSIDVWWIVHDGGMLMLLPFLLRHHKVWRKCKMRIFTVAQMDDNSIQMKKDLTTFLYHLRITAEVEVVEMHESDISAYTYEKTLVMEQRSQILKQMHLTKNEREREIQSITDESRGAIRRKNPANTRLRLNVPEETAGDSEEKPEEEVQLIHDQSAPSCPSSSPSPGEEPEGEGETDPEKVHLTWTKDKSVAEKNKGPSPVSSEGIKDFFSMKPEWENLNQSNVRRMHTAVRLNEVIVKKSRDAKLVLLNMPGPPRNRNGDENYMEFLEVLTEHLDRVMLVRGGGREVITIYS
As to the kind of experiment: Tl+ flux assay, KCC2-S940A construct in HEK-293 cells. It is filed as cell-based. Here is the method:
FLIPR TI Flux assay. HEK-293 cells were washed with HBSS, and then incubated with loading buffer containing TI sensitive fluorescent dye (https://www.moleculardevices.com), 20 μM bumetanide 20 μM ouabain and 2.5 mM probenecid for 1 h at room temperature (RT) under control conditions or with drugs in the dark using a FlexStation 3 microplate reader (Molecular Devices) and imaged […] for 30 min. Stimulus buffer was added containing 5 mM K^+/0.5 mM Tl^+ and cells were imaged every 1.5 over a 190 second time course The initial rate Tl^+ uptake (Relative Fluorescence Units (RFU) per second) was determined following addition of the stimulus buffer as outlined previously (Conway et al., 2017, supra) (Lee et al., 2022, supra).
Several studies have shown that the activity and plasma membrane accumulation of KCC2 is potentiated via phosphorylation of S940, a process mediated by the activity of protein kinase C and protein phosphatase 1 (Lee et al, 2011, supra; Lee et al., J Biol Chem 282, 29777-29784 (2007); Moore et al., Proc. Natl. Acad. Sci. U.S.A 115, 10166-10171 (2018); Moore et al., Trends Neurosci. 40, 555-571 (2017); Silayeva et al., Proc. Natl. Acad. Sci. U.S.A. 112, 3523-3528 (2015)). […] Compared to KCC2, effects on KCC3, KCC4, and NKCC1 were only seen at concentrations more than 35-fold that of KCC2 (>100 μM) (FIG. 1G).

We go through one compound from US20250281499A1, “FUSED AMINO PYRIMIDINE COMPOUNDS FOR TREATMENT OF NEUROPATHIC AND NEURO-INFLAMMATORY PAIN” (Ovid Therapeutics Inc., priority 2024, published 2025).

Molecules are shown by their SMILES.

`C[C@@H]1CN(c2nc3c(c(Nc4ccc(C5CCCCC5)cc4)n2)COC3)CCO1` [Compound A, (R)—N-(4-cyclohexylphenyl)-2-(2-methylmorpholino)-5,7-dihydrofuro[3,4-d]pyrimidin-4-amine]: the “activity of KCC2-S940A construct” value is “increased the activity”.
